From patent publication US20110311591A1, “Antimicrobial Coating” (SHEFFIELD HALLAM UNIVERSITY, priority 2008, published 2011)

Key:
Format in all cases: cell-based
Staphylococcus aureus = assay: Growth on agar/gentamicin plate (resistance check); conditions: 50 μg per ml
Method: (§1) Each of the bacterium where grown on a nutrient agar plate and an agar/gentamicin plate at a concentration of 50 μg per ml. This ensured the bacterial strains used where not resistant to gentamicin. One colony from the bacteria agar plate was used to inoculate a sterilized L-broth of 1% tryptone, 0.5% yeast extract, 0.5% NaCl, 0.2% glucose and left over night in a shaking incubator at 37° C.

[1] = test system: Escherichia coli (W3110, k 12 mutant); assay: Growth on agar/gentamicin plate (resistance check); conditions: 50 μg per ml
Method: as §1

[2] = test system: coagulase negative Staphylococcus epidermis; assay: Growth on agar/gentamicin plate (resistance check); conditions: 50 μg per ml
Method: as §1

bacteria = assay: Viable count on high temperature (80° C.) dried coating; conditions: coat dried at 80° C.
Method: The substrate was a standard glass microscope slide sterilized in an autoclave. Three different coatings were tested i) a pure sol-gel coating was used for a control, ii) a 5 mg/ml gentamicin solution mixed with sol-gel to form a 50 μg/ml coating (50 ppm) and a iii) 12.5 mg/ml concentration of gentamicin was made from gentamicin sulphate dissolved directly in the sol-gel to provide a 1.25% gentamicin sol-gel coating. Each coating was applied over the microscope slide using 200 μl of coating per plate, covered in one single coat and left for 24 hrs at room temperature to allow the coat to cure. Four plates were dried at 80° C. for 1 hr achieving a harder coat to determine if the gentamicin coat was still active after high temperature treatment.
To infect the plates with bacteria, a “sloppy agar” was made up from 0.7 g of nutrient agar dissolved in 100 ml of Phosphate buffer saline (PBS) and autoclaved forming a jelly like consistency. After melting, 5 ml of a inoculate L-broth was pipetted in to 100 ml of sloppy agar and mixed with 500 μl of this inoculated agar to be pipetted on to a coated plate forming a drop sitting on top of the coat. The plate was then laid flat into a Petri dish which was then placed in to a sealed, airtight, container with damp tissue paper to keep the sloppy agar in a moist environment to prevent drying out. […]

Substance: gentamicin
- susceptibility to gentamicin (Staphylococcus aureus): susceptible
- susceptibility to gentamicin [1]: susceptible
- susceptibility to gentamicin [2]: susceptible
- gentamicin activity and release after high temperature drying of the coat (bacteria): still active and released
